# Test system: Crude diglycosidase
# Assay: Examination of substrate concentration in the conversion into isoflavone aglycons by diglycosidase using soybean materials;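 further: percent of the isoflavone family total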
# Type: biochemical, Penicillium multicolor IAM7153
# Description: Into 20 mM acetate buffer of pH 4.0 was suspended 0.1 g, 0.25 g, 0.5 g, 1.0 g, or 1.5 g of each of various soybean materials (roasted soy flour (manufactured by Fuji Shokuryo K.K.), soymilk (manufactured by Gitoh Shokuhin K.K.), defatted soybean (manufactured by Fuji Seiyu K.K.), concentrated soybean protein (manufactured by Fuji Seiyu K.K.)). The pH of the suspension was measured and the liquid volume was adjusted to 4.5 mL while the pH was adjusted to 4.0 with 1N hydrochloric acid. An enzyme solution wherein diglycosidase activity of crude diglycosidase was adjusted to 1.88 AU/mL was added thereto in an amount of 0.5 mL, whereby the final liquid volume was 5.0 mL. Namely, the ratio of the soybean material in the reaction mixture was 2%, 5%, 10%, 20%, or 30% (w/v). The whole was reacted at 55° C. under shaking. To 5 mL of the reaction mixture was added 7 mL of ethanol after 0, 1, 3, and 6 hours of the reaction. After ultrasonication, the mixture was thoroughly mixed. It was subjected to centrifugal separation at 2,000 rpm and room temperature for 5 minutes. Then, […] of the supernatant was placed in a 1.5 mL microtube and was subjected to centrifugal separation at 15,000 rpm and 4° C. for 10 minutes. The supernatant was filtered through a filter and each sample was suitably diluted by a factor of 1 to 6 depending on the substrate concentration. Fifty μL of the diluted solution was analyzed by HLPC (Tables 27 to 38).
smiles,measurement,setting,value
COc1cc2c(=O)c(-c3ccc(O)cc3)coc2cc1O [glycitein],Decomposition efficiency: ratio of each glycoside/aglycon within its isoflavone family,"concentrated soybean protein, substrate concentration 2%, heat treatment of enzyme no, reaction time 0 h",11.6%
same,Decomposition efficiency: ratio of each glycoside/aglycon within its isoflavone family,"concentrated soybean protein, substrate concentration 2%, heat treatment of enzyme no, reaction time 1 h",85.3%
same,Decomposition efficiency: ratio of each glycoside/aglycon within its isoflavone family,"concentrated soybean protein, substrate concentration 2%, heat treatment of enzyme no, reaction time 3 h",94.4%
same,Decomposition efficiency: ratio of each glycoside/aglycon within its isoflavone family,"concentrated soybean protein, substrate concentration 2%, heat treatment of enzyme no, reaction time 6 h",100.0%
same,Decomposition efficiency: ratio of each glycoside/aglycon within its isoflavone family,"concentrated soybean protein, substrate concentration 2%, heat treatment of enzyme yes, reaction time 6 h",11.2%
same,Decomposition efficiency: ratio of each glycoside/aglycon within its isoflavone family,"concentrated soybean protein, substrate concentration 5%, heat treatment of enzyme no, reaction time 0 h",11.2%
same,Decomposition efficiency: ratio of each glycoside/aglycon within its isoflavone family,"concentrated soybean protein, substrate concentration 5%, heat treatment of enzyme no, reaction time 1 h",72.4%
same,Decomposition efficiency: ratio of each glycoside/aglycon within its isoflavone family,"concentrated soybean protein, substrate concentration 5%, heat treatment of enzyme no, reaction time 3 h",81.9%
same,Decomposition efficiency: ratio of each glycoside/aglycon within its isoflavone family,"concentrated soybean protein, substrate concentration 5%, heat treatment of enzyme no, reaction time 6 h",87.4%
same,Decomposition efficiency: ratio of each glycoside/aglycon within its isoflavone family,"concentrated soybean protein, substrate concentration 5%, heat treatment of enzyme yes, reaction time 6 h",11.3%
same,Decomposition efficiency: ratio of each glycoside/aglycon within its isoflavone family,"concentrated soybean protein, substrate concentration 10%, heat treatment of enzyme no, reaction time 0 h",11.0%
same,Decomposition efficiency: ratio of each glycoside/aglycon within its isoflavone family,"concentrated soybean protein, substrate concentration 10%, heat treatment of enzyme no, reaction time 1 h",66.8%
same,Decomposition efficiency: ratio of each glycoside/aglycon within its isoflavone family,"concentrated soybean protein, substrate concentration 10%, heat treatment of enzyme no, reaction time 3 h",73.5%
same,Decomposition efficiency: ratio of each glycoside/aglycon within its isoflavone family,"concentrated soybean protein, substrate concentration 10%, heat treatment of enzyme no, reaction time 6 h",75.8%
same,Decomposition efficiency: ratio of each glycoside/aglycon within its isoflavone family,"concentrated soybean protein, substrate concentration 10%, heat treatment of enzyme yes, reaction time 6 h",11.1%
same,Decomposition efficiency: ratio of each glycoside/aglycon within its isoflavone family,"concentrated soybean protein, substrate concentration 20%, heat treatment of enzyme no, reaction time 0 h",10.8%
same,Decomposition efficiency: ratio of each glycoside/aglycon within its isoflavone family,"concentrated soybean protein, substrate concentration 20%, heat treatment of enzyme no, reaction time 1 h",51.2%
same,Decomposition efficiency: ratio of each glycoside/aglycon within its isoflavone family,"concentrated soybean protein, substrate concentration 20%, heat treatment of enzyme no, reaction time 3 h",66.2%
same,Decomposition efficiency: ratio of each glycoside/aglycon within its isoflavone family,"concentrated soybean protein, substrate concentration 20%, heat treatment of enzyme no, reaction time 6 h",69.2%
same,Decomposition efficiency: ratio of each glycoside/aglycon within its isoflavone family,"concentrated soybean protein, substrate concentration 20%, heat treatment of enzyme yes, reaction time 6 h",11.1%
same,Decomposition efficiency: ratio of each glycoside/aglycon within its isoflavone family,"concentrated soybean protein, substrate concentration 30%, heat treatment of enzyme no, reaction time 0 h",8.2%
same,Decomposition efficiency: ratio of each glycoside/aglycon within its isoflavone family,"concentrated soybean protein, substrate concentration 30%, heat treatment of enzyme no, reaction time 1 h",61.5%
same,Decomposition efficiency: ratio of each glycoside/aglycon within its isoflavone family,"concentrated soybean protein, substrate concentration 30%, heat treatment of enzyme no, reaction time 3 h",68.9%
same,Decomposition efficiency: ratio of each glycoside/aglycon within its isoflavone family,"concentrated soybean protein, substrate concentration 30%, heat treatment of enzyme no, reaction time 6 h",71.4%
same,Decomposition efficiency: ratio of each glycoside/aglycon within its isoflavone family,"concentrated soybean protein, substrate concentration 30%, heat treatment of enzyme yes, reaction time 6 h",8.2%
same,Decomposition efficiency: ratio of each glycoside/aglycon within its isoflavone family,"defatted soybean, substrate concentration 2%, heat treatment of enzyme no, reaction time 0 h",not detected
same,Decomposition efficiency: ratio of each glycoside/aglycon within its isoflavone family,"defatted soybean, substrate concentration 2%, heat treatment of enzyme no, reaction time 1 h",not detected
same,Decomposition efficiency: ratio of each glycoside/aglycon within its isoflavone family,"defatted soybean, substrate concentration 2%, heat treatment of enzyme no, reaction time 3 h",not detected
same,Decomposition efficiency: ratio of each glycoside/aglycon within its isoflavone family,"defatted soybean, substrate concentration 2%, heat treatment of enzyme no, reaction time 6 h",not detected
same,Decomposition efficiency: ratio of each glycoside/aglycon within its isoflavone family,"defatted soybean, substrate concentration 2%, heat treatment of enzyme yes, reaction time 6 h",not detected
same,Decomposition efficiency: ratio of each glycoside/aglycon within its isoflavone family,"defatted soybean, substrate concentration 5%, heat treatment of enzyme no, reaction time 0 h",41.6%
same,Decomposition efficiency: ratio of each glycoside/aglycon within its isoflavone family,"defatted soybean, substrate concentration 5%, heat treatment of enzyme no, reaction time 1 h",58.4%
same,Decomposition efficiency: ratio of each glycoside/aglycon within its isoflavone family,"defatted soybean, substrate concentration 5%, heat treatment of enzyme no, reaction time 3 h",68.2%
same,Decomposition efficiency: ratio of each glycoside/aglycon within its isoflavone family,"defatted soybean, substrate concentration 5%, heat treatment of enzyme no, reaction time 6 h",80.5%
same,Decomposition efficiency: ratio of each glycoside/aglycon within its isoflavone family,"defatted soybean, substrate concentration 5%, heat treatment of enzyme yes, reaction time 6 h",41.5%
same,Decomposition efficiency: ratio of each glycoside/aglycon within its isoflavone family,"defatted soybean, substrate concentration 10%, heat treatment of enzyme no, reaction time 0 h",47.0%
same,Decomposition efficiency: ratio of each glycoside/aglycon within its isoflavone family,"defatted soybean, substrate concentration 10%, heat treatment of enzyme no, reaction time 1 h",45.3%
same,Decomposition efficiency: ratio of each glycoside/aglycon within its isoflavone family,"defatted soybean, substrate concentration 10%, heat treatment of enzyme no, reaction time 3 h",63.4%
same,Decomposition efficiency: ratio of each glycoside/aglycon within its isoflavone family,"defatted soybean, substrate concentration 10%, heat treatment of enzyme no, reaction time 6 h",72.1%
same,Decomposition efficiency: ratio of each glycoside/aglycon within its isoflavone family,"defatted soybean, substrate concentration 10%, heat treatment of enzyme yes, reaction time 6 h",42.4%
same,Decomposition efficiency: ratio of each glycoside/aglycon within its isoflavone family,"roasted soy flour, substrate concentration 2%, heat treatment of enzyme no, reaction time 0 h",16.2%
same,Decomposition efficiency: ratio of each glycoside/aglycon within its isoflavone family,"roasted soy flour, substrate concentration 2%, heat treatment of enzyme no, reaction time 1 h",100.0%
same,Decomposition efficiency: ratio of each glycoside/aglycon within its isoflavone family,"roasted soy flour, substrate concentration 2%, heat treatment of enzyme no, reaction time 3 h",100.0%
same,Decomposition efficiency: ratio of each glycoside/aglycon within its isoflavone family,"roasted soy flour, substrate concentration 2%, heat treatment of enzyme no, reaction time 6 h",100.0%
same,Decomposition efficiency: ratio of each glycoside/aglycon within its isoflavone family,"roasted soy flour, substrate concentration 2%, heat treatment of enzyme yes, reaction time 6 h",12.2%
same,Decomposition efficiency: ratio of each glycoside/aglycon within its isoflavone family,"roasted soy flour, substrate concentration 5%, heat treatment of enzyme no, reaction time 0 h",11.4%
same,Decomposition efficiency: ratio of each glycoside/aglycon within its isoflavone family,"roasted soy flour, substrate concentration 5%, heat treatment of enzyme no, reaction time 1 h",88.2%
same,Decomposition efficiency: ratio of each glycoside/aglycon within its isoflavone family,"roasted soy flour, substrate concentration 5%, heat treatment of enzyme no, reaction time 3 h",92.8%
same,Decomposition efficiency: ratio of each glycoside/aglycon within its isoflavone family,"roasted soy flour, substrate concentration 5%, heat treatment of enzyme no, reaction time 6 h",100.0%
same,Decomposition efficiency: ratio of each glycoside/aglycon within its isoflavone family,"roasted soy flour, substrate concentration 5%, heat treatment of enzyme yes, reaction time 6 h",11.4%
same,Decomposition efficiency: ratio of each glycoside/aglycon within its isoflavone family,"roasted soy flour, substrate concentration 10%, heat treatment of enzyme no, reaction time 0 h",5.5%
same,Decomposition efficiency: ratio of each glycoside/aglycon within its isoflavone family,"roasted soy flour, substrate concentration 10%, heat treatment of enzyme no, reaction time 1 h",83.3%
same,Decomposition efficiency: ratio of each glycoside/aglycon within its isoflavone family,"roasted soy flour, substrate concentration 10%, heat treatment of enzyme no, reaction time 3 h",90.3%
same,Decomposition efficiency: ratio of each glycoside/aglycon within its isoflavone family,"roasted soy flour, substrate concentration 10%, heat treatment of enzyme no, reaction time 6 h",100.0%
same,Decomposition efficiency: ratio of each glycoside/aglycon within its isoflavone family,"roasted soy flour, substrate concentration 10%, heat treatment of enzyme yes, reaction time 6 h",9.9%
same,Decomposition efficiency: ratio of each glycoside/aglycon within its isoflavone family,"roasted soy flour, substrate concentration 20%, heat treatment of enzyme no, reaction time 0 h",8.6%
same,Decomposition efficiency: ratio of each glycoside/aglycon within its isoflavone family,"roasted soy flour, substrate concentration 20%, heat treatment of enzyme no, reaction time 1 h",77.1%
same,Decomposition efficiency: ratio of each glycoside/aglycon within its isoflavone family,"roasted soy flour, substrate concentration 20%, heat treatment of enzyme no, reaction time 3 h",86.2%
same,Decomposition efficiency: ratio of each glycoside/aglycon within its isoflavone family,"roasted soy flour, substrate concentration 20%, heat treatment of enzyme no, reaction time 6 h",90.0%
same,Decomposition efficiency: ratio of each glycoside/aglycon within its isoflavone family,"roasted soy flour, substrate concentration 20%, heat treatment of enzyme yes, reaction time 6 h",9.1%
same,Decomposition efficiency: ratio of each glycoside/aglycon within its isoflavone family,"roasted soy flour, substrate concentration 30%, heat treatment of enzyme no, reaction time 0 h",8.8%
same,Decomposition efficiency: ratio of each glycoside/aglycon within its isoflavone family,"roasted soy flour, substrate concentration 30%, heat treatment of enzyme no, reaction time 1 h",71.6%
same,Decomposition efficiency: ratio of each glycoside/aglycon within its isoflavone family,"roasted soy flour, substrate concentration 30%, heat treatment of enzyme no, reaction time 3 h",75.6%
same,Decomposition efficiency: ratio of each glycoside/aglycon within its isoflavone family,"roasted soy flour, substrate concentration 30%, heat treatment of enzyme no, reaction time 6 h",86.3%
same,Decomposition efficiency: ratio of each glycoside/aglycon within its isoflavone family,"roasted soy flour, substrate concentration 30%, heat treatment of enzyme yes, reaction time 6 h",8.7%
same,Decomposition efficiency: ratio of each glycoside/aglycon within its isoflavone family,"soymilk, substrate concentration 2%, heat treatment of enzyme no, reaction time 0 h",not detected
same,Decomposition efficiency: ratio of each glycoside/aglycon within its isoflavone family,"soymilk, substrate concentration 2%, heat treatment of enzyme no, reaction time 1 h",100.0%
same,Decomposition efficiency: ratio of each glycoside/aglycon within its isoflavone family,"soymilk, substrate concentration 2%, heat treatment of enzyme no, reaction time 3 h",100.0%
same,Decomposition efficiency: ratio of each glycoside/aglycon within its isoflavone family,"soymilk, substrate concentration 2%, heat treatment of enzyme no, reaction time 6 h",100.0%
same,Decomposition efficiency: ratio of each glycoside/aglycon within its isoflavone family,"soymilk, substrate concentration 2%, heat treatment of enzyme yes, reaction time 6 h",not detected
same,Decomposition efficiency: ratio of each glycoside/aglycon within its isoflavone family,"soymilk, substrate concentration 5%, heat treatment of enzyme no, reaction time 0 h",not detected
same,Decomposition efficiency: ratio of each glycoside/aglycon within its isoflavone family,"soymilk, substrate concentration 5%, heat treatment of enzyme no, reaction time 1 h",75.4%
same,Decomposition efficiency: ratio of each glycoside/aglycon within its isoflavone family,"soymilk, substrate concentration 5%, heat treatment of enzyme no, reaction time 3 h",92.5%
same,Decomposition efficiency: ratio of each glycoside/aglycon within its isoflavone family,"soymilk, substrate concentration 5%, heat treatment of enzyme no, reaction time 6 h",100.0%
same,Decomposition efficiency: ratio of each glycoside/aglycon within its isoflavone family,"soymilk, substrate concentration 5%, heat treatment of enzyme yes, reaction time 6 h",not detected
same,Decomposition efficiency: ratio of each glycoside/aglycon within its isoflavone family,"soymilk, substrate concentration 10%, heat treatment of enzyme no, reaction time 0 h",6.4%
same,Decomposition efficiency: ratio of each glycoside/aglycon within its isoflavone family,"soymilk, substrate concentration 10%, heat treatment of enzyme no, reaction time 1 h",73.6%
same,Decomposition efficiency: ratio of each glycoside/aglycon within its isoflavone family,"soymilk, substrate concentration 10%, heat treatment of enzyme no, reaction time 3 h",89.5%
same,Decomposition efficiency: ratio of each glycoside/aglycon within its isoflavone family,"soymilk, substrate concentration 10%, heat treatment of enzyme no, reaction time 6 h",95.8%
same,Decomposition efficiency: ratio of each glycoside/aglycon within its isoflavone family,"soymilk, substrate concentration 10%, heat treatment of enzyme yes, reaction time 6 h",6.2%
same,Decomposition efficiency: ratio of each glycoside/aglycon within its isoflavone family,"soymilk, substrate concentration 20%, heat treatment of enzyme no, reaction time 0 h",6.3%
same,Decomposition efficiency: ratio of each glycoside/aglycon within its isoflavone family,"soymilk, substrate concentration 20%, heat treatment of enzyme no, reaction time 1 h",72.2%
same,Decomposition efficiency: ratio of each glycoside/aglycon within its isoflavone family,"soymilk, substrate concentration 20%, heat treatment of enzyme no, reaction time 3 h",90.6%
same,Decomposition efficiency: ratio of each glycoside/aglycon within its isoflavone family,"soymilk, substrate concentration 20%, heat treatment of enzyme no, reaction time 6 h",94.1%
same,Decomposition efficiency: ratio of each glycoside/aglycon within its isoflavone family,"soymilk, substrate concentration 20%, heat treatment of enzyme yes, reaction time 6 h",5.7%
same,Decomposition efficiency: ratio of each glycoside/aglycon within its isoflavone family,"soymilk, substrate concentration 30%, heat treatment of enzyme no, reaction time 0 h",6.1%
same,Decomposition efficiency: ratio of each glycoside/aglycon within its isoflavone family,"soymilk, substrate concentration 30%, heat treatment of enzyme no, reaction time 1 h",66.9%
same,Decomposition efficiency: ratio of each glycoside/aglycon within its isoflavone family,"soymilk, substrate concentration 30%, heat treatment of enzyme no, reaction time 3 h",84.1%
same,Decomposition efficiency: ratio of each glycoside/aglycon within its isoflavone family,"soymilk, substrate concentration 30%, heat treatment of enzyme no, reaction time 6 h",92.3%
same,Decomposition efficiency: ratio of each glycoside/aglycon within its isoflavone family,"soymilk, substrate concentration 30%, heat treatment of enzyme yes, reaction time 6 h",6.7%
